Data as given in ChEMBL document CHEMBL4184189, “Discovery of orally efficacious RORγt inverse agonists, part 1: Identification of novel phenylglycinamides as lead scaffolds” (Bioorg Med Chem, 2018).

Experiments:
[1] = target: T1, Nuclear receptor ROR-gamma (Homo sapiens, UniProt P51449); experiment: Displacement of BODIPY-cholesterol from human His-tagged RORgammat after 20 mins by TR-FRET assay
T1 sequence (P51449 whole entry): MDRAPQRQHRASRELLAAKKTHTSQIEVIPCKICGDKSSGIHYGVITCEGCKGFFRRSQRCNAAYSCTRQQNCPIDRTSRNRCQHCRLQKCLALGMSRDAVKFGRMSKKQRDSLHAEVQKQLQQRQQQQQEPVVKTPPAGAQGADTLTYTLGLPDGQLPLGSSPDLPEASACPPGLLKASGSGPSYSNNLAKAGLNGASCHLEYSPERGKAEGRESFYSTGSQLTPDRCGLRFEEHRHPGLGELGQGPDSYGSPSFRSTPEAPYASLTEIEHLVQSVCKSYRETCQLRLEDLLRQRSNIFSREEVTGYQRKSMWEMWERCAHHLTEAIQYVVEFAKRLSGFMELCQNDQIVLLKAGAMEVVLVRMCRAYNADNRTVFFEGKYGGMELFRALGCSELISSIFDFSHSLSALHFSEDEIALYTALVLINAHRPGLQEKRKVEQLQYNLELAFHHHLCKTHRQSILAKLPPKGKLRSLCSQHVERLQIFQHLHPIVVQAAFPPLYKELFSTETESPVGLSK

[2] = target: T1, Nuclear receptor ROR-gamma; experiment: Inverse agonist activity at RORgammat in human Jurkat cells assessed as inhibition of transcriptional activity after overnight incubation by human IL-17 ROR response element driven-bright-glo luciferase reporter gene assay; type: cell-based
[3] = Tmax in mouse plasma at 100 mg/kg, po; type: ADME, organism-based
[4] = Drug uptake in Balb/c mouse plasma at 10 to 100 mg/kg, po; type: ADME, organism-based; conditions: in vivo
Mus musculus [5] = experiment: (§1) AUC (0 to 8 hrs) in mouse at 1 mg/kg, po administered as cassette dose; type: ADME, organism-based; parameters: time < 8 hr, dose 1 mg/kg, route oral; conditions: in vivo, 8 h
[6] = Drug uptake in po dosed Balb/c mouse ear after 8 hrs; type: ADME, organism-based; conditions: in vivo
Mus musculus [7] = experiment: In vivo inverse agonist activity at RORgammat in Balb/c mouse assessed as inhibition of IL-23-induced IL-17a gene expression at 100 mg/kg, po administered 30 mins before and 8 hrs after IL-23 injection in ears intradermally measured after 24 hrs by qRT-PCR analysis relative to control; type: functional
[8] = AUC (0 to 24 hrs) in mouse plasma at 100 mg/kg, po; type: ADME, organism-based; parameters: dose 100 mg/kg, time < 24 hr, route oral
[9] = Cmax in mouse plasma at 100 mg/kg, po; type: ADME, organism-based; parameters: dose 100 mg/kg, route oral
[10] = Drug uptake in po dosed Balb/c mouse ear; type: ADME, organism-based; conditions: in vivo
[11] = as §1; type: ADME, organism-based; parameters: time < 8 hr, dose 1 mg/kg, route oral; conditions: in vivo
Homo sapiens [12] = species: Homo sapiens; experiment: Selectivity ratio of IC50 for RORbeta in human Jurkat cells to IC50 for RORgammat in human Jurkat cells; type: cell-based
[13] = target: T2, Nuclear receptor ROR-gamma (Homo sapiens) (UniProt P51449); experiment: Displacement of 25-[3H2]hydroxycholesterol from GST-tagged RORgammat (unknown origin) at 10 uM
T2 sequence (whole entry): T1 sequence (P51449 whole entry)

Homo sapiens [14] = species: Homo sapiens; experiment: Selectivity ratio of IC50 for RORalpha in human Jurkat cells to IC50 for RORgammat in human Jurkat cells; type: cell-based

| IC50 [1] [µM] | IC50 [2] [µM] | AUC(0-t) at 8 h [11] [ng·h/mL] | SMILES | also measured |
| --- | --- | --- | --- | --- |
| > 10 | > 30 |  | COc1ccc(C(CC(=O)Nc2ccc(C(C)(C)C)cc2)N(C)C(=O)c2ccc(=O)[nH]c2)cc1 (racemic) |  |
|  |  | 1590 | COc1ccc(C(C(=O)Nc2ccc([Si](C)(C)C)cc2)N(C)C(=O)c2cc(O)no2)cc1 (racemic) |  |
| > 10 | > 30 |  | COc1ccc(CC(C(=O)Nc2ccc(C(C)(C)C)cc2)N(C)C(=O)c2ccc(=O)[nH]c2)cc1 (racemic) |  |
| 0.2 | 1.6 |  | COc1ccc(C(C(=O)Nc2ccc(C(C)C)cc2)N(C)C(=O)c2ccc(O)nc2)cc1 (racemic) | Ratio IC50 (Homo sapiens [12]): > 15; inhibition [13]: 93%; Ratio IC50 (Homo sapiens [14]): > 15 |

The remaining lines, values behind:

| SMILES | IC50 [1] [µM] | IC50 [2] [µM] | AUC(0-t) at 8 h [11] [ng·h/mL] | also measured |
| --- | --- | --- | --- | --- |
| COc1ccc([C@H](C(=O)Nc2cc(F)c([Si](C)(C)C)c(F)c2)N(C)C(=O)c2cc(O)no2)cc1 |  |  |  | Tmax [3]: 1 h; Drug uptake [4]: Active; AUC (Mus musculus [5]): 370 ng·h/mL; Drug uptake [6]: Active; inhibition in vivo at 100 mg/kg (Mus musculus [7]): 71%; AUC(0-t) at 24 h [8]: 47400 ng·h/mL; Cmax [9]: 9120 ng/mL; Drug uptake [10]: Dose-dependent effect and Tde |
| COc1ccc(C(C(=O)Nc2cc(F)c([Si](C)(C)C)c(F)c2)N(C)C(=O)c2cc(O)no2)cc1 (racemic) |  |  | 1510 |  |
| COc1ccc(C(C(=O)N(C)c2ccc(C(C)(C)C)cc2)N(C)C(=O)c2ccc(=O)[nH]c2)cc1 (racemic) | > 10 | > 30 |  |  |
| COc1ccc(C(C(=O)Nc2ccc([Si](C)(C)C)cc2)N(C)C(=O)c2ccc(O)nc2)cc1 (racemic) |  |  | 86 |  |
